Each structure is given as a SMILES string. Marks after values point to notes of the source that are not given here.

The values that follow come from patent US9114133B2, “Method of improving diastolic dysfunction” (U.S. DEPT. OF VETERANS AFFAIRS, priority 2006, dated 2015).

In one assay the test system is isolated single myocytes. The assay can be described thus: Residual sarcomere length of isolated myocytes with BDM. In kind it is cell-based, mouse. Conditions: BDM 10 mM. The method, then:
2,3-Butanedione monoxime (BDM), a cross-bridge inhibitor, was used to measure residual sarcomere length. BDM inhibits the Ca^2+ regulated attachment of the cross-bridges and force-generation of the attached cross-bridges (Reference 16). Isolated single myocytes were loaded on an chamber and perfused with BDM (10 mM) in Tyrode's solution at 37° C. Sarcomere length was again measured while the myocytes were field-stimulated as described above.

For assay [1], the system named is DOCA-salt mouse model (diastolic dysfunction) and sham mice. The experiment in a line: Transthoracic echocardiography, in vivo BH4 treatment in DOCA-salt mice. The following applies: BH4 diet 5 mg BH4/day day 11-18, mean ± SEM. On the procedure:
Previously, I have shown that the DOCA-salt mouse model leads to mild hypertension, NOS uncoupling, myocardial oxidative stress, and diastolic dysfunction (Reference 10). A gradual and mild elevation in blood pressure was induced by unilateral nephrectomy, subcutaneous implantation of a controlled release deoxycorticosterone acetate (DOCA) pellet (0.7 mg/d; Innovative Research of America, Sarasota, Fla.), and substituting drinking water with 1.05% saline. Control animals underwent a sham operation, had placebo pellet implantation, and received water without salt.
Mice were divided into two groups which received a control diet (sham N=7; DOCA-salt N=10) and two groups which received a BH4 supplemental diet of 5 mg BH4/day (Research Diets Inc, New Brunswick, N.J.; sham+BH4 N=8; DOCA-salt+BH4 N=8). The supplemental diet began on day 11 after surgery, and continued until day 18, when the mice were analyzed and sacrificed.
Mitral pulse wave Doppler flow and tissue Doppler imaging (TDI) were performed using the Vevo 770 high-resolution in vivo imaging system (Visual Sonics, Toronto, Canada) (Reference 10). Mice were anesthetized with 1-1.5% isoflurane until a heart rate of around 350-390 beats/min was achieved because measures of diastolic function are sensitive to heart rate and loading conditions. M-mode images in the parasternal long axis and the left ventricle (LV) short-axis views at the mid-papillary level were taken. Measurements were averaged from five consecutive beats during expiration. The images for each mouse were recorded for at least 5 s (30-40 cardiac cycles) from which three to five representative cycles with the highest quality imaging were selected. Percent fractional shortening (% FS) was calculated as 100×(LVEDd)−(LVESd)/(LVEDd) and percent LV ejection fraction (% EF) was calculated as 100×[(7/2.4+LVEDd)×LEDd^3]−[(7/2.4+LVESd)×LVESd^3]/[(7/2.4+LVEDd)×LEDd^3]. Doppler measurements were made at the tips of the mitral leaflets for diastolic filling profiles in the apical four-chamber view. Mitral inflow velocities, peak early (E) and late (A) were measured by conventional pulsed-wave Doppler. TDI was used to determine the mitral annulus longitudinal velocities (Sm, E′, and A′) (Reference 10). Baseline images before treatment were acquired to confirm diastolic dysfunction in DOCA-salt mice. Subsequently, the mice were fed with BH4, followed by echocardiography at day 18.

The subject of assay [2] is MnSOD deficient cardiomyocytes. The experiment in a line: Contraction and relaxation of cardiomyocytes from heterozygous MnSOD knockout mice (IonOptix). The class given is cell-based, mouse. The following applies: BH4 treatment. The method, then:
Echocardiography was used to determine DD in heterozygous MnSOD knockout mice. The mitral annulus longitudinal velocities (E′, and A′) were determined by pulsed-wave tissue Doppler from the apical four-chamber view. Mitochondrial ROS were measured by confocal microscopy and flow cytometry from isolated cardiomyocytes using MitoSOX Red. NO was measured by DAF-FM and by the Griess reaction. Contraction and relaxation impairment were assessed by lonOptix System.

Assay [3] has as its system isolated ventricular myocytes. The assay can be described thus: Isolated myocyte contraction and relaxation parameters (IonOptix). The class given is cell-based, mouse. Conditions: 1.0 Hz, 10 V, external Ca2+ 1.2 mmol/L.
Where [4] appears, read: myocytes from DOCA-salt + BH4 mice.

`CC(=O)C(C)=NO` [BDM, 2,3-Butanedione monoxime]: the Residual sarcomere length entry is given as “no effect” in the assay on isolated single myocytes (myocytes after BH4 treatment); “increased” in the assay with isolated single myocytes (myocytes of sham and DOCA-salt groups).

In the case of `C[C@H](O)[C@H](O)[C@H]1CNc2nc(N)[nH]c(=O)c2N1` [BH4, tetrahydrobiopterin], in assay [1] (DOCA-salt mice), the “A′ (tissue Doppler)” value came to 15.2 ± 1.0 mm/s, the “EF (ejection fraction)” value is given as 54.5 ± 5.0%, the “E′ (tissue Doppler)” value is on record as 16.8 ± 1.3†^ mm/s and the “FS (fractional shortening)” value was determined as 26.6 ± 2.9%. In addition, in assay [1] (DOCA-salt mice), the LVEDD stood at 3.67 ± 0.14 mm, the LVESD is reported as 2.65 ± 0.21 mm, the “MV A” value is listed as 367.8 ± 48.3 mm/s and the “MV E” value is recorded as 555.0 ± 35.1†^ mm/s. Also, in assay [1] (DOCA-salt mice), the “MV E/A ratio” value was determined as 1.71 ± 0.33 and the Sm was 15.8 ± 1.5. In assay [1] (sham mice), the “A′ (tissue Doppler)” value is recorded as 21.1 ± 1.9 mm/s, the “E/E′ ratio” value is 34.91 ± 6.81&, the “EF (ejection fraction)” value is recorded as 51.1 ± 2.8% and the “E′ (tissue Doppler)” value is 24.4 ± 2.2†& mm/s. In assay [1] (sham mice), the “E′/A′ ratio” value is recorded as 1.17 ± 0.06&, the “FS (fractional shortening)” value was found to be 24.7 ± 1.6%, the LVEDD stood at 4.05 ± 0.10 mm and the LVESD is 3.01 ± 0.11 mm. In addition, in assay [1] (sham mice), the “MV A” value is listed as 357.5 ± 31.7 mm/s, the “MV E” value is reported as 738.1 ± 31.1†& mm/s, the “MV E/A ratio” value came to 2.28 ± 0.33 and the Sm stood at 22.9 ± 1.5. Besides, in assay [2], the “Relaxation constant (tau)” value worked out at 0.73±0.01 and the Resting sarcomere length is reported as 1.77±0.01 μm. Moreover, in assay [3] (setting [4]), the “Diastolic SL” value was 1.77±0.01 μm, the Relengthening velocity came out at 2.39 ± 0.18 μm/s, the Sarcomere shortening was found to be 9.48 ± 0.49% and the Shortening velocity is −2.42 ± 0.14 μm/s. In addition, in assay [3] (setting [4]), the “Systolic SL” value stood at 1.60 ± 0.01 μm, the “Time to 50% relengthening” value is on record as 240.3 ± 7.5 ms, the “Time to 50% shortening” value is 47.5 ± 0.7 ms and the “Time to 90% relengthening” value was determined as 300.0 ± 13.4 ms. Moreover, in assay [3] (setting [4]), the “Time to 90% shortening” value is listed as 93.5 ± 1.8 ms and the “Time to peak shortening” value is 146.2 ± 0.3 ms. In addition, in assay [3] (myocytes from sham + BH4 mice), the “Diastolic SL” value is on record as 1.80 ± 0.01#†& μm; the “Relaxation constant, τ” value was 0.07 ± 0.00&; the Relengthening velocity is reported as 2.75 ± 0.18#†& μm/s; the Sarcomere shortening is recorded as 10.64 ± 0.61& %. For the same compound, in assay [3] (myocytes from sham + BH4 mice), the Shortening velocity is on record as −2.90 ± 0.16#†& μm/s, the “Systolic SL” value is reported as 1.61 ± 0.01& μm, the “Time to 50% relengthening” value is given as 204.7 ± 6.0&# ms and the “Time to 50% shortening” value was determined as 45.6 ± 0.8 ms. For the same compound, in assay [3] (myocytes from sham + BH4 mice), the “Time to 90% relengthening” value was 258.7 ± 11.7&# ms, the “Time to 90% shortening” value is 87.3 ± 1.8&# ms and the “Time to peak shortening” value is listed as 133.6 ± 0.3& ms.
